The subject of one assay is P. aeruginosa biofilm. The assay can be described thus: In vitro P. aeruginosa biofilm degradation assay (crystal violet). It is filed as cell-based, Pseudomonas aeruginosa. The following applies: for effect of the minimal killing concentration when cells are organized in a biofilm: antibiotic alone, P. aeruginosa clinical isolates. The protocol:
In Vitro P. aeruginosa Biofilm Degradation Assay
M. pneumoniae spp. was grown in a T25 flask for three days with 5 ml of Hayflick media without antibiotics, and then the conditioned supernatant was filtered with 0.33 μm sterile syringe filters. P. aeruginosa strains were grown overnight in Erlenmeyer flasks (20 μl stock in 20 ml TSB) at 37° C. on shaking 600 rpm, and then diluted to an OD600 of 0.15 in TSB. Diluted Pseudomonas culture (100 μl) was then added in triplicates to sterile 96-well polystyrene microtiter plates. Cells were incubated statically overnight at 25°° C. to allow for biofilm formation. Biofilms were washed with PBS the following day to remove non-adherent cells and TSB media. Treatment of 50-100 µl of M. pneumoniae-conditioned filtered medium were added to the wells (using at least triplicates), and plates were incubated at 37° C. for 4 h. After incubation, wells were washed with PBS, stained with 150 μl of 0.1% (w/v) crystal violet for 10 min and washed three times with PBS. The dye was solubilized by addition of 100 μl of 95% (v/v) ethanol and incubated for 10 min. Absorbance was measured at 595 nm using a TECAN plate reader.

The test system of the next assay is P. aeruginosa cells. The assay can be described thus: Effect of antibiotic concentrations on growth of P. aeruginosa isolates in suspension. The assay is classed as cell-based, Pseudomonas aeruginosa. The following applies: clinical isolates SAT290 and C117, suspension. The source says:
(§1) We studied a possible increase of the biofilm dispersal activity of CV8_HA strain, that expresses dispersal agents against P. aeruginosa, when combined with antibiotics. We used two different clinical isolates of P. aeruginosa (SAT290 and C117) and two different standard of care antibiotics (Ceftazidime-Avibactam and Piperacillin-Tazobactam). First, we studied the effect of different concentrations of these antibiotics on the growth of P. aeruginosa isolates and M. pneumoniae. […] Therefore, we studied the degradation of the biofilm of the P. aeruginosa clinical isolates when exposed to the supernatant of CV8_HA strains with or without these antibiotics (FIG. 8).

In the next assay the test system is M. pneumoniae. Nature of the assay: Effect of antibiotics on growth of M. pneumoniae. The assay is classed as cell-based, Mycoplasma pneumoniae.
Excerpt: as §1

For Ceftazidime-Avibactam, in the assay with P. aeruginosa biofilm, the “effect of the minimal killing concentration when cells are organized in a biofilm” value is “has no effect”. In the assay with P. aeruginosa biofilm (clinical isolate SAT290 (FIG. 8A)), the “antibiotic activity on biofilm when combined with CV8_HA supernatant” value was “becomes active on the biofilm”. In the assay with P. aeruginosa cells, the “minimal concentration that kills P. aeruginosa cells when grown in suspension” value is above 15 µg/mL. In addition, in the assay on M. pneumoniae, the “susceptibility of M. pneumoniae to the antibiotic” value is given as “naturally resistant”.
Consider Piperacillin-Tazobactam, for which, in the assay on P. aeruginosa biofilm, the “effect of the minimal killing concentration when cells are organized in a biofilm” value was “has no effect”. Also, the “minimal concentration that kills P. aeruginosa cells when grown in suspension” value in the assay on P. aeruginosa cells was above 5 µg/mL. The “susceptibility of M. pneumoniae to the antibiotic” value in the assay with M. pneumoniae is on record as “naturally resistant”.

Source of the values: US20240382537A1, “Genetically Modified Mycoplasma Bacteria Active Against Heterogenous Bacterial Biofilms” (priority 2021, published 2024).
